Measurements as given in patent US11952346B2, “Modulators of mas-related G-protein receptor X2 and related products and methods” (Escient Pharmaceuticals, Inc., priority 2020, dated 2024).

Target: T1, human MRGPRX2 (Homo sapiens, UniProt Q96LB1)
T1 construct: expressed in transfected cells
T1 sequence (Q96LB1 1-330): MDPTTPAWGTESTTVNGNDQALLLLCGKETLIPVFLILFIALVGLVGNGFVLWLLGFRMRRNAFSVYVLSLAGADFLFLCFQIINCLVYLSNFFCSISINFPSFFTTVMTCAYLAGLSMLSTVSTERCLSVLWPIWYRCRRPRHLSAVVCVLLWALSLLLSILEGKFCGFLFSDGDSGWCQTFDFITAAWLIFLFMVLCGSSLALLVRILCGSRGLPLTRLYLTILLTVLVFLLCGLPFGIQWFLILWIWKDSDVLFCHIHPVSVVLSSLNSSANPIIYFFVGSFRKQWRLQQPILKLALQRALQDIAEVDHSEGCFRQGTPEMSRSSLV
Experiment: MRGPRX2 antagonist activity, IP-One HTRF assay in CHO cells expressing human MRGPRX2 versus Cortistatin-14
Format: cell-based
Settings: not given
Protocol: CHO cells stably transfected to express human MRGPRX2 were maintained in an incubator at 37° C. with 5% CO2 and grown in F12 (HAM) media with 10% fetal bovine serum (FBS), 1% Glutamax, 1% penicillin/streptomycin, 800 μg/mL Geneticin (G418), and 300 μg/mL Hygromycin B. Cells were plated in a 384-well assay plate at 20,000 cells per well in 12 μL of Opti-MEM and kept in an incubator overnight. On the day of the assay, compounds solubilized at 10 mM in DMSO were added as a 10-point curve (30 uM final top concentration with 1:3 serial dilutions) using a Tecan D300E digital dispenser. Agonists were diluted in assay buffer (final concentrations of 5.7 mM Tris-HCl, 43 mM NaCl, 50 mM LiCI, pH=8) and 2 μL of the agonist Cortistatin-14 (CPC Scientific, catalog CORT-002) are added to each well. Final concentrations of agonists were […] Cortistatin-14. Final concentrations of DMSO were kept consistent across the plate. Plates were incubated in the dark for 1 hr at 37° C. and then for 1 hr at room temperature. IP-1 standards and HTRF detection reagents were added according to the IP-One—Gq Kit purchased from Cisbio (part number 621PAPEJ) and incubated in the dark for 1 hr at room temperature. The plate was read on a Molecular Devices SpectraMax iD5 plate reader. The HTRF ratio was calculated from the raw data and graphed using GraphPad Prism to calculate an IC50 value for each compound.
The activity ranges are denoted as follows: “+++++” denotes antagonist activity <100 nM; “++++” denotes antagonist activity between 100 and 500 nM; “+++” denotes activity between 501 and 1000 nM; “++” denotes activity between 1001 and 2500 nM; and “+” denotes activity >2500 nM.

SMILES | IC50
N#Cc1ccc(N[C@H]2CC[C@@H](NC(=O)c3c[nH]c4ccccc34)CC2)cc1C(F)(F)F [1-19] | < 100 nM
CN(c1ccc(C(=O)N[C@H]2CC[C@@H](Nc3ccc(C#N)c(C(F)(F)F)c3)CC2)cc1)S(C)(=O)=O [1-18] | 100 to 500 nM
N#Cc1ccc(N[C@H]2CC[C@@H](NC(=O)c3ccc4nccn4c3)CC2)cc1C(F)(F)F [1-20] | 100 to 500 nM

Same assay, conditions: CHO cells stably expressing human MRGPRX2; versus 0.3 uM Cortistatin-14 agonist; IP-1 HTRF readout; read-out: MRGPR2 Antagonist Activity

SMILES | IC50
O=C(N[C@H]1CC[C@@H](Nc2cc(Cl)nc(C(F)(F)F)c2)CC1)c1ccc(F)cc1 [Example 7, N-(1S,4S)-[4-[[2-chloro-6-(trifluoromethyl)-4-pyridyl]amino]cyclohexyl]-4-fluoro-benzamide] | 501 to 1000 nM
O=C(N[C@H]1CC[C@@H](Nc2cc(C(F)(F)F)cc(C(F)(F)F)c2)CC1)c1ccccc1 [Example 13, N-((1S,4S)-4-((3,5-bis(trifluoromethyl)phenyl)amino)cyclohexyl)benzamide] | > 2500 nM
N#Cc1ccc(N[C@H]2CC[C@@H](NC(=O)c3ccnc4cn[nH]c34)CC2)cc1C(F)(F)F [4-58] | < 100 nM
N#Cc1ccc(N[C@H]2CC[C@@H](NC(=O)c3ccc(N4CCOCC4)cc3)CC2)cc1C(F)(F)F [1-25] | 100 to 500 nM
Cn1ccc2c(C(=O)N[C@H]3CC[C@@H](Nc4ccc(C#N)c(C(F)(F)F)c4)CC3)ccnc21 [4-61] | < 100 nM
Cc1cc(C(=O)N[C@H]2CC[C@@H](Nc3cc(C)c(C#N)c(C(F)(F)F)c3)CC2)cc(C)n1 [5-1] | < 100 nM
N#Cc1ccc(N[C@H]2CC[C@@H](NC(=O)c3cnn(CC(F)(F)F)c3)CC2)cc1C(F)(F)F [Example 17, N-((1s,4s)-4-((4-cyano-3-(trifluoromethyl)phenyl)amino)cyclohexyl)-1-(2,2,2-trifluoroethyl)-1H-pyrazole-4-carboxamide] | < 100 nM
O=C(N[C@H]1CC[C@@H](Nc2cc(C(F)(F)F)nc(N3CCCC3)n2)CC1)c1ccc(F)cc1 [1-9] | 1000 to 2500 nM
O=C(N[C@H]1CC[C@@H](Nc2cc(C(F)(F)F)nc(Nc3ccccc3)n2)CC1)c1ccc(F)cc1 [Example 10, N-(1S,4S)-[4-[[2-anilino-6-(trifluoromethyl)pyrimidin-4-yl]amino}cyclohexyl]-4-fluoro-benzamide] | 1000 to 2500 nM
CCN(C)c1nc(N[C@H]2CC[C@@H](NC(=O)c3ccc(N(C)C)cc3)CC2)cc(C(F)(F)F)n1 [Example 11, 4-(dimethylamino)-N-(1S,4S)-[4-[[2-[ethyl(methyl)amino]-6-(trifluoromethyl)pyrimidin-4-yl]amino]cyclohexyl] benzamide] | 100 to 500 nM
N#Cc1ccc(N[C@H]2CC[C@@H](NC(=O)c3cn[nH]c3C#N)CC2)cc1C(F)(F)F [4-56] | < 100 nM
N#Cc1ccc(N[C@H]2CC[C@@H](NC(=O)c3c[nH]c4cnccc34)CC2)cc1C(F)(F)F [4-64] | < 100 nM

Other lines, results leading:

IC50 | SMILES
100 to 500 nM | CC(C#N)c1cccc(C(=O)N[C@H]2CC[C@@H](Nc3cc(C(F)(F)F)nc(C(F)(F)F)c3)CC2)c1 (stereo partly drawn) [4-11]
1000 to 2500 nM | CN1CCN(C(=O)N[C@H]2CC[C@@H](Nc3cc(C(F)(F)F)nc(C(F)(F)F)c3)CC2)CC1 [4-36]
100 to 500 nM | O=C(N[C@H]1CC[C@@H](Nc2cc(C(F)(F)F)nc(C(F)(F)F)c2)CC1)c1ccc(N2CCCC2)cc1 [4-41]
100 to 500 nM | O=C(N[C@H]1CC[C@@H](Nc2cc(C(F)(F)F)nc(C(F)(F)F)c2)CC1)c1ccc(N2CCS(=O)(=O)CC2)cc1 [4-38]
100 to 500 nM | CNC(=O)Nc1cccc(C(=O)N[C@H]2CC[C@@H](Nc3cc(C(F)(F)F)nc(C(F)(F)F)c3)CC2)c1 [4-3]
501 to 1000 nM | CC(C)C(=O)Nc1cccc(C(=O)N[C@H]2CC[C@@H](Nc3cc(C(F)(F)F)nc(C(F)(F)F)c3)CC2)c1 [4-16]
100 to 500 nM | O=C(N[C@H]1CC[C@@H](Nc2cc(C(F)(F)F)nc(C(F)(F)F)c2)CC1)c1ccc(-n2ccnc2)cc1 [4-25]
1000 to 2500 nM | CN(C)c1nc(N[C@H]2CC[C@@H](NC(=O)c3cccc(C#N)c3)CC2)cc(C(F)(F)F)n1 [4-18]
100 to 500 nM | CS(=O)(=O)Nc1cccc(C(=O)N[C@H]2CC[C@@H](Nc3cc(C(F)(F)F)nc(C(F)(F)F)c3)CC2)c1 [4-10]
